Key:
Format in all cases: in vivo
female CD-1 mice = assay: Exposure experiment through drinking water; settings: 10-day exposure via drinking water; no statistically significant difference (P>0.05)
Description: Mice with a maximal difference in body weight of 1 g were selected for the experiments and randomly assigned to either the treatment or control groups. […] The animals were fed ad libitum an oestrogen-free diet from Trophic Animal Feed High-tech Co., Ltd. (Nantong, China), and drinking water was provided ad libitum in glass bottles. Before the experiments, the mice were randomly assigned to five groups (n=8). Ultra-pure water was used as a control. FULV was dissolved in ultra-pure water to a concentration of 100 ng l^−1 and used as a positive control. […] Two plastic drinking bottles labelled ‘BPA-free', of different brands, were purchased and denoted Bottle A and Bottle B. The plastic bottles were filled with boiling ultra-pure water from a stainless steel electric water heater and allowed to cool down to room temperature before the animal experiment. The BHPF levels in the cooled boiled waters from Bottle A, Bottle B and the stainless steel electric water heater were determined by GC–MS. No BHPF was detected in the cooled boiled water from the stainless steel electric water heater. The cooled boiled waters from Bottle A and Bottle B were transferred to glass bottles during the experiment. The exposure experiment was performed for 10 days beginning on PND 24. After the period of exposure, the mice were weighed and killed in turns for each group, whereby in each turn only one mouse in a group was killed. Blood was collected by cardiac puncture soon after each animal was killed, and the uteri were removed, blotted and weighed by one experimenter to reduce the risk of bias in the data collection and immediately frozen in liquid nitrogen for gene expression analysis. The relative uterine weight was calculated to evaluate the anti-uterotrophic activity. […] The serum BHPF levels were analysed by GC–MS using the same method as that for human serum. The gene expressions of sprr2a and sprr2b in the uteri were determined by Q-RT-PCR.

CD-1 mice [1] = assay: Q-RT-PCR validation of the microarray; settings: 50 mg/kg bw/d BHPF, 3 days
Description: The uteri, ovaries and livers were collected for total RNA isolation. Total RNA was isolated using Trizol reagent (Invitrogen) and further purified by NucleoSpin RNA Clean-up (Macherey-Nagel, Germany). Fluorescence labelling of the RNA samples was performed with a Jingxin cRNA linear amplification and labelling kit (CapitalBio) according to the manufacturer's instructions. The total RNA from each pool of tissue samples (a mixture from three animals) was used for microarray analysis. Cy3 dCTP was used to label the samples. The labelled products were added to SurePrint G3 mouse gene expression 8 × 60 K microarrays (Agilent) and incubated overnight at 42 °C. Following hybridization, the gene arrays were washed and scanned using an Agilent G2565CA Microarray Scanner. Glyceraldehyde 3-phosphate dehydrogenase (GAPDH) was used as an endogenous control to monitor the quality of the target preparation. The data were processed with feature extraction software (GeneSpring GX v.11; Agilent). The raw signals were log-transformed and normalized with the percentile shift normalization method. All arrays met the minimum Agilent QA/QC standards. To verify the data from the gene array, 14 genes were chosen as candidates for Q-RT-PCR. Primers are listed in Supplementary Table 4. GAPDH was used as an endogenous control. Amplification was performed using SYBR Green PCR master mix (Applied Biosystems) according to the manufacturer's instructions. The relative expression was quantified using the 2^(−ΔΔCt) method. The Gene Ontology (GO) and KEGG pathway enrichment analyses were performed with DAVID (refs [40], [41]).

CD-1 mice [2] = assay: Uterotrophic assay, 3 days beginning on PND 21; settings: combined with 400 μg kg^−1 bw d^−1 E2; 250 and 500 mg kg^−1 d^−1 groups; P<0.01
Description: […] […] Ten mice per group were used for the assays. Error bars indicate the s.d.'s from the average. *P<0.05 compared with the corresponding control. **P<0.01 compared with the corresponding control. Significance was tested by Fisher's LSD test.

What does the source list for `Oc1ccc(C2(c3ccc(O)cc3)c3ccccc3-c3ccccc32)cc1` [BHPF, 9,9-bis(4-hydroxyphenyl)-fluorene]?
expression of sprr2a in the uteri (Q-RT-PCR) (female CD-1 mice): decreased; Actb gene expression change, liver, Q-RT-PCR (CD-1 mice [1]): 1.25; Actb gene expression change, ovary, Q-RT-PCR (CD-1 mice [1]): 1.13; Actb gene expression change, uterus, Q-RT-PCR (CD-1 mice [1]): 1.13; Cfd gene expression change, liver, Q-RT-PCR (CD-1 mice [1]): -2.43; Cfd gene expression change, ovary, Q-RT-PCR (CD-1 mice [1]): 2.28; Cfd gene expression change, uterus, Q-RT-PCR (CD-1 mice [1]): -2.85; Orm1 gene expression change, liver, Q-RT-PCR (CD-1 mice [1]): -1.41; Orm1 gene expression change, ovary, Q-RT-PCR (CD-1 mice [1]): 2.19; Orm1 gene expression change, uterus, Q-RT-PCR (CD-1 mice [1]): 5.17; Spp1 gene expression change, liver, Q-RT-PCR (CD-1 mice [1]): -1.51; Spp1 gene expression change, ovary, Q-RT-PCR (CD-1 mice [1]): -1.68; Spp1 gene expression change, uterus, Q-RT-PCR (CD-1 mice [1]): 3.43; Sprr1a gene expression change, liver, Q-RT-PCR (CD-1 mice [1]): 4.11; Sprr1a gene expression change, ovary, Q-RT-PCR (CD-1 mice [1]): 1.16; Sprr1a gene expression change, uterus, Q-RT-PCR (CD-1 mice [1]): -2.01; Sprr2a2 gene expression change, liver, Q-RT-PCR (CD-1 mice [1]): 3.43; Sprr2a2 gene expression change, ovary, Q-RT-PCR (CD-1 mice [1]): -8.94; Sprr2a2 gene expression change, uterus, Q-RT-PCR (CD-1 mice [1]): -5.70; Sprr2b gene expression change, liver, Q-RT-PCR (CD-1 mice [1]): 4.76; Sprr2b gene expression change, ovary, Q-RT-PCR (CD-1 mice [1]): -9.65; Sprr2b gene expression change, uterus, Q-RT-PCR (CD-1 mice [1]): -9.58; Sprr2f gene expression change, liver, Q-RT-PCR (CD-1 mice [1]): 4.41; Sprr2f gene expression change, ovary, Q-RT-PCR (CD-1 mice [1]): -5.28; Sprr2f gene expression change, uterus, Q-RT-PCR (CD-1 mice [1]): -5.78; Sprr2g gene expression change, liver, Q-RT-PCR (CD-1 mice [1]): 3.68; Sprr2g gene expression change, ovary, Q-RT-PCR (CD-1 mice [1]): -5.70; Sprr2g gene expression change, uterus, Q-RT-PCR (CD-1 mice [1]): -1.83; chil3 gene expression change, liver, Q-RT-PCR (CD-1 mice [1]): -2.81; chil3 gene expression change, ovary, Q-RT-PCR (CD-1 mice [1]): -3.92; chil3 gene expression change, uterus, Q-RT-PCR (CD-1 mice [1]): -3.07; cyp2e1 gene expression change, liver, Q-RT-PCR (CD-1 mice [1]): 4.06; cyp2e1 gene expression change, ovary, Q-RT-PCR (CD-1 mice [1]): 1.69; cyp2e1 gene expression change, uterus, Q-RT-PCR (CD-1 mice [1]): 4.00; ll1f6 gene expression change, liver, Q-RT-PCR (CD-1 mice [1]): 2.66; ll1f6 gene expression change, ovary, Q-RT-PCR (CD-1 mice [1]): -4.29; ll1f6 gene expression change, uterus, Q-RT-PCR (CD-1 mice [1]): -4.66; serp1d gene expression change, liver, Q-RT-PCR (CD-1 mice [1]): 2.48; serp1d gene expression change, ovary, Q-RT-PCR (CD-1 mice [1]): 1.59; serp1d gene expression change, uterus, Q-RT-PCR (CD-1 mice [1]): 30.91; GAPDH gene expression change, liver, Q-RT-PCR (CD-1 mice [1]; endogenous control): 1.00; GAPDH gene expression change, ovary, Q-RT-PCR (CD-1 mice [1]; endogenous control): 1.00; GAPDH gene expression change, uterus, Q-RT-PCR (CD-1 mice [1]; endogenous control): 1.00; effect on uterotrophic effect of E2 (CD-1 mice [2]): inhibited the uterotrophic effect of E2

— publication PMC5339874, “Fluorene-9-bisphenol is anti-oestrogenic and may cause adverse pregnancy outcomes in mice” (Nature Communications, 2017)
